# Measurements reported in publication PMC5218480 (PLoS ONE, 2017).
# System: MV-4-11 cells
# Assay: Gene expression microarray analysis (Affymetrix PrimeView) and GSEA
# Assay type: cell-based, human
# Design: RFU PODN (11730768_x_at) / Fold change /veh PODN (11730768_x_at) / RFU LINC00158 (11744669_a_at) / Fold change /veh LINC00158 (11744669_a_at) / RFU DUSP10 (11751237_a_at) / Fold change /veh DUSP10 (11751237_a_at) / RFU ID3 (11757404_x_at) / Fold change /veh ID3 (11757404_x_at) / RFU PLEKHG5 (11737974_s_at) / Fold change /veh PLEKHG5 (11737974_s_at) / RFU LRRC4B (11730491_at) / Fold change /veh LRRC4B (11730491_at) / RFU GIMAP4 (11747438_a_at) / Fold change /veh GIMAP4 (11747438_a_at) / RFU KRT8 (11758183_x_at) / Fold change /veh KRT8 (11758183_x_at) / RFU CNN1 (11734310_a_at) / Fold change /veh CNN1 (11734310_a_at) / RFU VPS37D (11726825_at) / Fold change /veh VPS37D (11726825_at) / RFU C10orf10 (11716522_x_at) / Fold change /veh C10orf10 (11716522_x_at) / RFU KIR2DL2 /// KIR2DL4 /// KIR2DL5A /// KIR2DL5B /// KIR2DS1 /// KIR2DS2 /// KIR2DS3 /// KIR2DS4 /// KIR3DL3 /// KIR3DL3 /// KIR3DS1 (11738374_at) / Fold change /veh KIR2DL2 /// KIR2DL4 /// KIR2DL5A /// KIR2DL5B /// KIR2DS1 /// KIR2DS2 /// KIR2DS3 /// KIR2DS4 /// KIR3DL3 /// KIR3DL3 /// KIR3DS1 (11738374_at) / RFU C1QL1 (11718748_at) / Fold change /veh C1QL1 (11718748_at) / RFU TMPRSS4 (11747572_a_at) / Fold change /veh TMPRSS4 (11747572_a_at) / RFU HAMP (11756126_x_at) / Fold change /veh HAMP (11756126_x_at) / RFU RNFT2 (11725882_a_at) / Fold change /veh RNFT2 (11725882_a_at) / RFU NR4A2 (11747474_a_at) / Fold change /veh NR4A2 (11747474_a_at) / RFU ABCC12 (11746883_a_at) / Fold change /veh ABCC12 (11746883_a_at) / RFU TMEM136 (11760407_x_at) / Fold change /veh TMEM136 (11760407_x_at) / RFU CLDN22 /// WWC2 (11732394_at) / Fold change /veh CLDN22 /// WWC2 (11732394_at) / RFU HLA-DPB1 (11760878_x_at) / Fold change /veh HLA-DPB1 (11760878_x_at) / RFU SPINT1 (11716480_a_at) / Fold change /veh SPINT1 (11716480_a_at) / RFU GAP43 (11754022_s_at) / Fold change /veh GAP43 (11754022_s_at) / RFU A4GNT (11735810_at) / Fold change /veh A4GNT (11735810_at) / RFU PRB3 (11715151_x_at) / Fold change /veh PRB3 (11715151_x_at) / RFU TUBB4B (11761932_at) / Fold change /veh TUBB4B (11761932_at) / RFU CAPN14 (11732068_a_at) / Fold change /veh CAPN14 (11732068_a_at) / RFU TMCC2 (11721928_a_at) / Fold change /veh TMCC2 (11721928_a_at) / RFU IRGQ (11745062_a_at) / Fold change /veh IRGQ (11745062_a_at) / RFU FAM174B (11720279_a_at) / Fold change /veh FAM174B (11720279_a_at) / RFU TMPRSS4 (11748680_a_at) / Fold change /veh TMPRSS4 (11748680_a_at) / RFU FAM212B (11763350_a_at) / Fold change /veh FAM212B (11763350_a_at) / RFU PLEKHG5 (11743358_a_at) / Fold change /veh PLEKHG5 (11743358_a_at) / RFU ZSCAN30 (11745921_a_at) / Fold change /veh ZSCAN30 (11745921_a_at) / RFU CMKLR1 (11741424_a_at) / Fold change /veh CMKLR1 (11741424_a_at) / RFU LOC101060620 /// MAPK8IP1 (11723275_at) / Fold change /veh LOC101060620 /// MAPK8IP1 (11723275_at) / RFU SPTSSB (11747773_x_at) / Fold change /veh SPTSSB (11747773_x_at) / RFU PRSS12 (11739890_at) / Fold change /veh PRSS12 (11739890_at) / RFU BIN1 (11741810_x_at) / Fold change /veh BIN1 (11741810_x_at) / RFU WNT11 (11732464_a_at) / Fold change /veh WNT11 (11732464_a_at) / RFU C10orf10 (11716521_a_at) / Fold change /veh C10orf10 (11716521_a_at) / RFU C5orf56 (11738089_at) / Fold change /veh C5orf56 (11738089_at) / RFU CYB561 (11721691_x_at) / Fold change /veh CYB561 (11721691_x_at) / RFU ANKRD19P (11752326_a_at) / Fold change /veh ANKRD19P (11752326_a_at) / RFU OR2T12 /// OR2T33 /// OR2T8 (11738714_s_at) / Fold change /veh OR2T12 /// OR2T33 /// OR2T8 (11738714_s_at) / RFU VCAN (11748164_a_at) / Fold change /veh VCAN (11748164_a_at) / RFU JSRP1 (11732532_at) / Fold change /veh JSRP1 (11732532_at) / RFU KRTAP10-11 (11738290_x_at) / Fold change /veh KRTAP10-11 (11738290_x_at) / RFU MYO3A (11730013_a_at) / Fold change /veh MYO3A (11730013_a_at) / RFU EBF3 (11725865_a_at) / Fold change /veh EBF3 (11725865_a_at) / RFU CAMK2N1 (11719241_x_at) / Fold change /veh CAMK2N1 (11719241_x_at) / RFU C5orf56 (11738088_a_at) / Fold change /veh C5orf56 (11738088_a_at) / RFU OLFML3 (11715873_a_at) / Fold change /veh OLFML3 (11715873_a_at) / RFU LOC100653217 /// NTM (11731650_a_at) / Fold change /veh LOC100653217 /// NTM (11731650_a_at) / RFU MAPK11 (11762145_a_at) / Fold change /veh MAPK11 (11762145_a_at) / RFU FIZ1 (11724087_x_at) / Fold change /veh FIZ1 (11724087_x_at) / RFU OASL (11726364_x_at) / Fold change /veh OASL (11726364_x_at) / RFU SOX15 (11748057_x_at) / Fold change /veh SOX15 (11748057_x_at) / RFU CD79A (11719716_a_at) / Fold change /veh CD79A (11719716_a_at) / RFU HIST1H1D (11736915_at) / Fold change /veh HIST1H1D (11736915_at) / RFU CASKIN2 (11723855_a_at) / Fold change /veh CASKIN2 (11723855_a_at) / RFU LOC730098 (11760151_x_at) / Fold change /veh LOC730098 (11760151_x_at) / RFU OR4N2 (11742367_at) / Fold change /veh OR4N2 (11742367_at) / RFU PRRT2 (11749266_a_at) / Fold change /veh PRRT2 (11749266_a_at) / RFU SNX32 (11753110_a_at) / Fold change /veh SNX32 (11753110_a_at) / RFU CDHR5 (11726645_a_at) / Fold change /veh CDHR5 (11726645_a_at) / RFU RCAN1 (11760418_a_at) / Fold change /veh RCAN1 (11760418_a_at) / RFU FAM167A (11723789_a_at) / Fold change /veh FAM167A (11723789_a_at) / RFU FAM26E (11764081_at) / Fold change /veh FAM26E (11764081_at) / RFU ISYNA1 (11749810_s_at) / Fold change /veh ISYNA1 (11749810_s_at) / RFU ACY1 (11761880_at) / Fold change /veh ACY1 (11761880_at) / RFU 11764098_at / Fold change /veh 11764098_at / RFU SAMD14 (11745864_x_at) / Fold change /veh SAMD14 (11745864_x_at) / RFU NPB (11741838_a_at) / Fold change /veh NPB (11741838_a_at) / RFU TMPRSS6 (11731388_a_at) / Fold change /veh TMPRSS6 (11731388_a_at) / RFU KRTAP10-2 (11738614_at) / Fold change /veh KRTAP10-2 (11738614_at) / RFU ARHGAP8 /// PRR5-ARHGAP8 (11727945_x_at) / Fold change /veh ARHGAP8 /// PRR5-ARHGAP8 (11727945_x_at) / RFU KRTAP5-7 /// NADSYN1 (11734609_at) / Fold change /veh KRTAP5-7 /// NADSYN1 (11734609_at) / RFU RASL12 (11751679_a_at) / Fold change /veh RASL12 (11751679_a_at) / RFU CDKN2B (11736163_a_at) / Fold change /veh CDKN2B (11736163_a_at) / RFU PRF1 (11729649_at) / Fold change /veh PRF1 (11729649_at) / RFU, ZNF638 /// ZNF638-IT1 / Fold change vs veh, ZNF638 /// ZNF638-IT1 / RFU, PANK3 / Fold change vs veh, PANK3 / RFU, SH3YL1 / Fold change vs veh, SH3YL1 / RFU, ZEB2 / Fold change vs veh, ZEB2 / RFU, NRIP1 / Fold change vs veh, NRIP1 / RFU, PTTG1IP / Fold change vs veh, PTTG1IP / RFU, CAPN2 / Fold change vs veh, CAPN2 / RFU, MED14 / Fold change vs veh, MED14 / RFU, SNORA58 / Fold change vs veh, SNORA58 / RFU, C1orf63 / Fold change vs veh, C1orf63 / RFU, LRRFIP1 / Fold change vs veh, LRRFIP1 / RFU, NDUFAF7 / Fold change vs veh, NDUFAF7 / RFU, SLC12A2 / Fold change vs veh, SLC12A2 / RFU, IBTK / Fold change vs veh, IBTK / RFU, ESF1 / Fold change vs veh, ESF1 / Fold change vs veh, TMEM50B / RFU, TAOK1 / Fold change vs veh, TAOK1 / RFU, ACBD3 / Fold change vs veh, ACBD3 / RFU, TMA16 / Fold change vs veh, TMA16 / RFU, RWDD3 / Fold change vs veh, RWDD3 / RFU, BCAT1 / Fold change vs veh, BCAT1 / RFU, EDEM3 / Fold change vs veh, EDEM3 / RFU, TMEM33 / Fold change vs veh, TMEM33 / RFU, WDR75 / Fold change vs veh, WDR75 / RFU, AHCTF1 / Fold change vs veh, AHCTF1 / RFU, TFRC / Fold change vs veh, TFRC / RFU, ZDHHC17 / Fold change vs veh, ZDHHC17 / RFU, NOM1 / Fold change vs veh, NOM1 / RFU, ARL8B / Fold change vs veh, ARL8B / RFU, ZBTB11 / Fold change vs veh, ZBTB11 / RFU, TAMM41 / Fold change vs veh, TAMM41 / RFU, KIAA1704 /// LOC100996395 / Fold change vs veh, KIAA1704 /// LOC100996395 / RFU, ING1 / Fold change vs veh, ING1 / RFU, TRMT61B / Fold change vs veh, TRMT61B / RFU, FUBP3 / Fold change vs veh, FUBP3 / RFU, TP53 / Fold change vs veh, TP53 / RFU, TNKS2 / Fold change vs veh, TNKS2 / RFU, ZFP14 / Fold change vs veh, ZFP14 / RFU, ACTR2 / Fold change vs veh, ACTR2 / RFU, PPP3R1 / Fold change vs veh, PPP3R1 / RFU, PIK3R1 / Fold change vs veh, PIK3R1 / RFU, HNRNPA1 / Fold change vs veh, HNRNPA1 / RFU, RNF170 / Fold change vs veh, RNF170 / RFU, ZNF28 / Fold change vs veh, ZNF28 / RFU, RNGTT / Fold change vs veh, RNGTT / RFU, OGT / Fold change vs veh, OGT / RFU, BRD1 / Fold change vs veh, BRD1 / RFU, MARS / Fold change vs veh, MARS / RFU, ZNF655 / Fold change vs veh, ZNF655 / RFU, FAHD1 / Fold change vs veh, FAHD1 / RFU, BDP1 / Fold change vs veh, BDP1 / RFU, LRRCC1 / Fold change vs veh, LRRCC1 / RFU, ARID1A / Fold change vs veh, ARID1A / RFU, ZNF146 / Fold change vs veh, ZNF146 / RFU, ZNF330 / Fold change vs veh, ZNF330 / RFU, GPN3 / Fold change vs veh, GPN3 / RFU, C9orf123 / Fold change vs veh, C9orf123 / RFU, N4BP2L2 / Fold change vs veh, N4BP2L2 / RFU, ARFIP1 / Fold change vs veh, ARFIP1 / RFU, FAM179B / Fold change vs veh, FAM179B / RFU, BCL10 / Fold change vs veh, BCL10 / RFU, UHRF1BP1L / Fold change vs veh, UHRF1BP1L / RFU, BET1 / Fold change vs veh, BET1 / RFU, CNOT2 / Fold change vs veh, CNOT2 / RFU, ZNF268 / Fold change vs veh, ZNF268 / Fold change vs veh, ZNF507 / RFU, DGCR2 / Fold change vs veh, DGCR2 / RFU, WDSUB1 / Fold change vs veh, WDSUB1 / Fold change vs veh, HSP90B1 /// MIR3652 / RFU, ADSS / Fold change vs veh, ADSS / RFU, GK / Fold change vs veh, GK / RFU, ZNF148 / Fold change vs veh, ZNF148 / RFU, TAF9 / Fold change vs veh, TAF9 / RFU, SLC1A5 / Fold change vs veh, SLC1A5 / RFU, SLMO2 / Fold change vs veh, SLMO2 / RFU, ABCC4 / Fold change vs veh, ABCC4 / RFU, LOC101060439 /// RAP1B / Fold change vs veh, LOC101060439 /// RAP1B / RFU, RFX7 / Fold change vs veh, RFX7 / RFU, GTPBP10 / Fold change vs veh, GTPBP10 / RFU, CNEP1R1 / Fold change vs veh, CNEP1R1 / RFU, BIVM-ERCC5 /// ERCC5 / Fold change vs veh, BIVM-ERCC5 /// ERCC5 / RFU, ILF3 / Fold change vs veh, ILF3 / RFU 11762660_at / Fold change /veh 11762660_at / RFU VCAN (11757783_s_at) / Fold change /veh VCAN (11757783_s_at) / RFU DDX43 (11728927_at) / Fold change /veh DDX43 (11728927_at) / RFU KRT8 (11758188_x_at) / Fold change /veh KRT8 (11758188_x_at) / RFU NKD1 (11759106_at) / Fold change /veh NKD1 (11759106_at) / RFU SRD5A1 (11742802_a_at) / Fold change /veh SRD5A1 (11742802_a_at) / RFU TPSAB1 /// TPSB2 (11721975_s_at) / Fold change /veh TPSAB1 /// TPSB2 (11721975_s_at) / RFU GSTM3 (11746129_a_at) / Fold change /veh GSTM3 (11746129_a_at) / RFU IL23R (11737362_x_at) / Fold change /veh IL23R (11737362_x_at) / RFU TMEM51 (11727254_a_at) / Fold change /veh TMEM51 (11727254_a_at) / RFU PIWIL2 (11732686_x_at) / Fold change /veh PIWIL2 (11732686_x_at) / RFU ORM1 (11744905_x_at) / Fold change /veh ORM1 (11744905_x_at) / RFU CCDC152 (11743942_at) / Fold change /veh CCDC152 (11743942_at) / RFU ECM1 (11717891_a_at) / Fold change /veh ECM1 (11717891_a_at) / RFU IL23R (11748794_a_at) / Fold change /veh IL23R (11748794_a_at) / RFU TNFAIP8L3 (11732012_x_at) / Fold change /veh TNFAIP8L3 (11732012_x_at) / RFU MBOAT4 (11741988_at) / Fold change /veh MBOAT4 (11741988_at) / RFU 11764193_at / Fold change /veh 11764193_at / RFU TMEM53 (11763286_at) / Fold change /veh TMEM53 (11763286_at) / RFU MAGEB2 (11727129_at) / Fold change /veh MAGEB2 (11727129_at) / RFU TMEM200A (11744735_a_at) / Fold change /veh TMEM200A (11744735_a_at) / RFU CCDC152 (11751479_a_at) / Fold change /veh CCDC152 (11751479_a_at) / RFU FAM211A (11726209_a_at) / Fold change /veh FAM211A (11726209_a_at) / RFU RGS16 (11746705_a_at) / Fold change /veh RGS16 (11746705_a_at) / RFU VCAN (11755009_s_at) / Fold change /veh VCAN (11755009_s_at) / RFU RHOB (11743442_s_at) / Fold change /veh RHOB (11743442_s_at) / RFU RGS16 (11720943_a_at) / Fold change /veh RGS16 (11720943_a_at) / RFU RGS16 (11720944_at) / Fold change /veh RGS16 (11720944_at) / RFU, VPS4B / Fold change vs veh, VPS4B / RFU, CREB1 / Fold change vs veh, CREB1 / RFU, DNAJC13 / Fold change vs veh, DNAJC13 / RFU, GNAQ / Fold change vs veh, GNAQ / RFU, CDK5R1 / Fold change vs veh, CDK5R1 / RFU, ZRANB3 / Fold change vs veh, ZRANB3 / RFU, CUL4A / Fold change vs veh, CUL4A / RFU, CCNY / Fold change vs veh, CCNY / RFU, UFL1 / Fold change vs veh, UFL1 / RFU, COG3 / Fold change vs veh, COG3 / RFU, DIAPH2 / Fold change vs veh, DIAPH2 / RFU, SKA2 / Fold change vs veh, SKA2 / RFU, AFF3 / Fold change vs veh, AFF3 / RFU, LMF1 / Fold change vs veh, LMF1 / RFU, IPO11 / Fold change vs veh, IPO11 / RFU, DFFB / Fold change vs veh, DFFB / RFU, FOXP1 / Fold change vs veh, FOXP1 / RFU, CARD8 / Fold change vs veh, CARD8 / RFU, STRN3 / Fold change vs veh, STRN3 / RFU, ADK / Fold change vs veh, ADK / RFU, RASSF2 / Fold change vs veh, RASSF2 / RFU, WIPF1 / Fold change vs veh, WIPF1 / RFU, LARP1B / Fold change vs veh, LARP1B / RFU, RASA1 / Fold change vs veh, RASA1 / RFU, RB1 / Fold change vs veh, RB1 / RFU, PPFIA1 / Fold change vs veh, PPFIA1 / RFU, MAT2A / Fold change vs veh, MAT2A / RFU, CCT5 / Fold change vs veh, CCT5 / RFU, WDR92 / Fold change vs veh, WDR92 / RFU, CUX1 / Fold change vs veh, CUX1 / RFU, TTC7A / Fold change vs veh, TTC7A / RFU, TMEM135 / Fold change vs veh, TMEM135 / RFU, DEPTOR / Fold change vs veh, DEPTOR / RFU, CPM / Fold change vs veh, CPM / RFU, DNAJB6 / Fold change vs veh, DNAJB6 / RFU, CACNA2D3 / Fold change vs veh, CACNA2D3 / RFU, DTX4 / Fold change vs veh, DTX4 / RFU, TFCP2 / Fold change vs veh, TFCP2 / RFU, GMCL1 /// GMCL1P1 / Fold change vs veh, GMCL1 /// GMCL1P1 / RFU, AEBP2 / Fold change vs veh, AEBP2 / RFU, SNHG1 /// SNORD22 /// SNORD25 /// SNORD26 /// SNORD27 /// SNORD28 /// SNORD29 /// SNORD31 / Fold change vs veh, SNHG1 /// SNORD22 /// SNORD25 /// SNORD26 /// SNORD27 /// SNORD28 /// SNORD29 /// SNORD31 / Fold change (Aza/veh), C12orf56 (ProbeSet 11735607_a_at) / Fold change (ACY-1035/veh), C12orf56 (ProbeSet 11735607_a_at) / Fold change (Aza/veh), FGFR1OP (ProbeSet 11751329_s_at) / Fold change (ACY-1035/veh), FGFR1OP (ProbeSet 11751329_s_at) / Fold change (Aza/veh), VPS36 (ProbeSet 11739960_a_at) / Fold change (ACY-1035/veh), VPS36 (ProbeSet 11739960_a_at) / RFU SYPL1 (11715823_x_at) / Fold change /veh SYPL1 (11715823_x_at) / RFU IGFBP7 (11715501_s_at) / Fold change /veh IGFBP7 (11715501_s_at) / RFU REEP3 (11722064_at) / Fold change /veh REEP3 (11722064_at) / RFU IGLL1 (11728026_x_at) / Fold change /veh IGLL1 (11728026_x_at): dose or concentration left out as unconfirmed
# Settings: ProbeSet 11732281_s_at; LIST D
compound,measurement,value
Nc1ncn([C@@H]2O[C@H](CO)[C@@H](O)[C@H]2O)c(=O)n1 [azacitidine],"RFU, FOXP1",174.32 RFU
